In patent publication US4693992A, “Bacitracin-metal-polyether antibiotic complexes” (International Minerals & Chemical Corp., priority 1985, dated 1987):

Tests used:
[1] = Weight gain and feed utilization in chicks, 12 days (Example 14); type: in vivo, chicken; settings: .0066% in feed
Method: (§1) This example describes experimetnal testing of complexes of the present invention as feed additives for improving weight gain or feed utilization efficiency in birds. Test animals were male meat-type chickens (Hubbard strain). Fluorescent room lights were on a 16 hours light/8 hours dark schedule. The chicks were allotted to the pens on the basis of weight classes, and chicks in the even numbered pens were wing banded. Group weights were obtained at the start and individual weights at the termination of the experiment. Chicks weighing between 55 and 65 grams were selected for the test. The test compounds were blended with a basal feed ration (shown in Table 2) at the indicated concentration. Birds fed […] and feed supplemented with zinc bacitracin (Baciferm® 50, International Minerals and Chemical Corp.) were used as controls. The test was continued for 11 days, after which individual weights, pen weight and feed consumption were recorded and analyzed.
All of the bacitracin-metal-polyether antibiotic complexes tested produced statistically significant increases in gains compared to the unmedicated basal ration.
The test involving test compounds 1 and 3-14 consisted of 5 replicates of 7 chicks and those involving test compound 2 consisted of 6 replicates of 7 chicks. The tests were continued for 12 days, after which individual weight gains and feed conusumption were recorded and analyzed.

[2] = tested on: Eimeria tenella; assay: Anticoccidial activity in chickens inoculated with Eimeria tenella (Example 12); type: in vivo, chicken; settings: for Cecal Bleeding / Gain/Bird Days 0-3 / Gain/Bird Days 4-10: regrouped part of Table 2
Method: (§2) This example describes experimental testing of complexes of this invention for anticoccidial activity. Anticoccidial activities of test compounds were determined by administering the compounds (in feed) to chickens inoculated with active oocysts of Eimeria tenella. The test compounds, which are listed in Table 1 below, included four bacitracin-metal-polyether antibiotic complexes prepared according to the procedures described above. In addition, sodium lysocellin, regular bacitracin, sodium monensin, sodium lasolocid, and unmedicated inoculated and noninoculated controls were included for comparative purposes.
(§3) The test animals were Hubbard White Mountain male chicken (broiler strain) that were 5 days old at the beginning of the test. Each experimental compound was administered in a chick starter diet (Table 2) at a level of 80 g/ton and 120 g/ton. At 7 days of age, chicks were individually weighed, banded, and started on their respective treatments. Each treatment was replicated three times with five birds per replicate for a total of 15 birds per group. The test period was 10 days.
Seventy-two hours after the initiation of medication, birds were reweighed and orally inoculated with approximately 100,000 Eimeria tenella oocysts suspended in a 1 cc dose of saline. The following criteria were then evaluated over the next seven days:
A satisfactory challenge was obtained with Eimeria tenella.

[3] = Weight gain and feed utilization efficiency in chicks, 11 days (Example 13); type: in vivo, chicken; parameters: key to Average Weight: average weight in grams; settings: .00275% in rye basal diet
Method: as §1

[4] = tested on: buffered rumen fluid; assay: Rumen screen, in vitro ruminal volatile fatty acid ratio (Examples 15, 16); type: cell-based, steer; settings: 10 ppm, Neg. Control 1.39
Method: Rumen fluid was removed from a fistulated steer and strained through a cheesecloth. An equal amount of pH 7 buffer was added to strained rumen fluid. After layering occurred, the lower layer was saved and again diluted with equal amount of buffer. Ten ml. portions of buffered rumen fluid were added to fermentation vessels containing 500 mg. fresh finely ground cattle ration, 1 mg cellubiose and a test compound listed in Table 1 below at the indicated concentration. The fermentation vesels were outfitted with one-way gas valves, placed in an incubator and shaken for 24 hours at 38° C. Fermentation was stopped by addition of 1 ml mercuric chloride. The liquid was decanted and analyzed for volatile fatty acids by gas chromatography. Test results are summarized in Table 1, wherein Bac=bacitracin.
The procedures of Example 15 were repeated in all essential details with the test compounds and concentrations listed in Table 1 below, as are the results of the test.

[5] = tested on: Eimeria tenella; assay: Anticoccidial activity in chickens inoculated with Eimeria tenella oocysts (Example 11); type: in vivo; settings: for Incidence of Bloody Droppings / Morbidity: 4th-6th day; for Morbidity: birds affected/birds in group; for Mortality: 4th-7th day, birds dead/birds in group; for F/G Day 0-3 / F/G Day 4-10: feed per gain
Method: as §2, §3
Seventy-two hours after the initiation of medication, birds were reweighed and orally inoculated with approximately 100,000 Eimeria tenella oocysts suspended in a 1 cc dose of saline. The following criteria were then evaluated over the next seven days: […]
a. morbidity (4th-6th day) b. mortality (4th-7th day) c. incidence of bloody droppings (4th-6th day)

Bacitracin-Nickel-Lysocellin Complex [Example 4]
Gain/Feed Data ([1]; 12 days): .585 | Gains/gram Data ([1]; 12 days): 197.2 gram | Gain/Feed Index Relative to #1 ([1]; #1 = unmedicated): 103.9 | Gains Index Relative to #1 ([1]; #1 = unmedicated): 106.5 | Gain/Feed Index Relative to #2 ([1]; #2 = zinc bacitracin): 98.2 | Gains Index Relative to #2 ([1]; #2 = zinc bacitracin): 94.1 | Cecal Bleeding ([2]; 14 g/ton Lasalocid (Approx.)): Severe | Gain/Bird Days 0-3 ([2]; 14 g/ton Lasalocid (Approx.)): 63.3 | Gain/Bird Days 4-10 ([2]; 14 g/ton Lasalocid (Approx.)): 164.1 | Cecal Bleeding ([2]; 36 g/ton Lasalocid (Approx.)): Slight-Moderate | Gain/Bird Days 0-3 ([2]; 36 g/ton Lasalocid (Approx.)): 59.5 | Gain/Bird Days 4-10 ([2]; 36 g/ton Lasalocid (Approx.)): 187.4 | Incidence of Bloody Droppings ([2]; 80 g/ton in feed): Severe | Morbidity ([2]; 80 g/ton in feed): 9/15 | Mortality ([2]; 80 g/ton in feed): 0/15 | F/G Day 0-3 ([2]; 80 g/ton in feed): 1.61 | Gain/Bird Grams Day 0-3 ([2]; 80 g/ton in feed): 63.3 Grams | F/G Day 4-10 ([2]; 80 g/ton in feed): 1.91 | Gain/Bird Grams Day 4-10 ([2]; 80 g/ton in feed): 164.1 Grams | Cecal bleeding associated with E. tenella infections ([2]; 80 gram per ton): severe | weight gains compared with those of test compound 5 and lasalocid ([2]; 80 gram per ton (lasalocid 24 gram per ton)): appreciably higher | Morbidity ([2]; 120 g/ton in feed): 5/15 | Mortality ([2]; 120 g/ton in feed): 0/15 | F/G Day 0-3 ([2]; 120 g/ton in feed): 1.69 | Gain/Bird Grams Day 0-3 ([2]; 120 g/ton in feed): 59.5 Grams | F/G Day 4-10 ([2]; 120 g/ton in feed): 1.72 | Gain/Bird Grams Day 4-10 ([2]; 120 g/ton in feed): 187.4 Grams | Average Gain ([3]; 11 days): 217 g | Gain/Feed Ratio ([3]; 11 days): 62.8 | Average Weight ([3]; Table 4): 277.0 | Gain/Feed ([3]; Table 4): 62.8 | Average Gain Index ([3]; unmedicated = 100): 105.4 | Gain/Feed Ratio Index ([3]; unmedicated = 100): 98.5 | A/P Ratio ([4]; Example 15, 24 hours at 38° C.): 1.10 | A/P Ratio ([4]; Example 16): .88 | protection against cecal bleeding ([5]; 80 and 120 g/ton): only fair | bleeding ([5]; 80 and 120 g/ton, this test): slight bleeding | anticoccidial activity (in words) ([5]; 80 and 120 g/ton, mild E. tenella challenge): performed well | Incidence of Bloody Droppings ([5]; 80 g/ton in feed): Slight | Morbidity ([5]; 80 g/ton in feed): 2/15 | Mortality ([5]; 80 g/ton in feed): 0/15 | Gain, Grams Day 0-3 ([5]; 80 g/ton in feed): 60.8 Grams | Gain, Grams Day 4-10 ([5]; 80 g/ton in feed): 229.1 Grams | F/G Day 0-3 ([5]; 80 g/ton in feed): 1.70 | F/G Day 4-10 ([5]; 80 g/ton in feed): 1.59 | Incidence of Bloody Droppings ([5]; 120 g/ton in feed): Slight | Morbidity ([5]; 120 g/ton in feed): 1/15 | Mortality ([5]; 120 g/ton in feed): 1/15 | Gain, Grams Day 0-3 ([5]; 120 g/ton in feed): 58.6 Grams | Gain, Grams Day 4-10 ([5]; 120 g/ton in feed): 227.7 Grams | F/G Day 0-3 ([5]; 120 g/ton in feed): 1.70 | F/G Day 4-10 ([5]; 120 g/ton in feed): 1.59 | bleeding ([5]; 200 g/ton, in C-760 (another test)): no bleeding
